Results from patent US9464255B2, “Maleinized ester derivatives” (Elevance Renewable Sciences, Inc., priority 2013, dated 2016).

Legend:
Kinematic viscosity (KV) = type: physicochemical
Experimental: The maleinated ester derivatives may be biodegradable and may be used as functional base oils. The functional base oil may have a kinetic viscosity (ASTM D-445) in the range from about 2 to about 1000 cSt at 100° C., or from about 2 to about 500, or from about 2 to about 100, or from about 4 to about 10 cSt. The base oil may have a viscosity up to about 35 cSt at 100° C., or in the range from about 3 to about 35 cSt, or in the range from about 5 to about 35 cSt at 100° C.

[1] = Viscosity index (ASTM D2270); type: physicochemical
Source text: The functional base oil may have a viscosity index (ASTM D2270) in the range from about 120 to about 250, or from about 130 to about 170.

[2] = system: microbial populations in the inoculum (activated sludge); experiment: Bacterial plate counts of reaction flask solutions at Day 28; type: cell-based; conditions: study termination
Experimental: Bacterial plate counts are performed on the prepared activated sludge prior to initiation and each replicate reaction flask solution at Day 28. A dilution series of each sample is prepared in sterile, pH 7.2, phosphate-buffered water at 10^−2, 10^−3, 10^−4, 10^−5, and 10^−6. Duplicate 1-mL aliquots of each dilution are directly analyzed by plate counting methods patterned after methods described in Standard Methods for the Examination of Water and Wastewater. (See, American Public Health Association (APHA), American Water Works Association (AWWA), and Water Environment Federation (WEF). 1998. Standard Methods for the Examination of Water and Wastewater, 20th Edition, Part 9215 B, Pour Plate Method). The bacterial growth medium is Plate Count Agar (Difco Laboratories). The plates of inocula are incubated at 26±2° C. for five to six days before counting the number of colonies on plates with fewer than 300 colonies. The number of colonies at the dilution coming closest to 300 colonies is used to calculate colony forming units (CFU)/mL for each sample.

[3] = system: activated sludge (microbial inoculum); experiment: Aerobic biodegradability in water containing mineral salts and activated sludge (CO2 evolution, DOC); conditions: toxicity control >25% ThCO2 by day 6
Experimental: A maleinized ester derivative in the form of hydrogenated 1-pentyl triester of maleinated-9-dodecene methyl ester (hereinafter the “test substance”) is evaluated for aerobic biodegradability in water containing mineral salts and activated sludge. The activated sludge is taken from a wastewater treatment plant and is used as a source of microbial inoculum. The objectives of the study are: 1) to evaluate the biodegradability (mineralization to CO2 production) potential of the test substance in an aerobic, aqueous medium; and 2) to determine the mineralization potential of a reference chemical in order to assess the viability of the test inoculum.
Approximately one liter of activated sludge is used as the microbial inoculum. The sludge is collected from the Columbia Wastewater Plant in Columbia, Miss. This plant treats predominately domestic sewage.
An aqueous mineral salts medium provides essential mineral nutrients and trace elements necessary to sustain the inoculum throughout the test period. The mineral salts medium is prepared by addition of reagent grade salts to reagent water. […]
The CO2-free air is introduced into each flask by positive pressure, and the flow rates (50-100 mL/minute) are measured and adjusted using flow meters. […] Temperature of the chamber is continuously measured using a Rees Scientific temperature monitoring system. […]

[4] = Solubility in water (observation in the biodegradation test); type: physicochemical
Source text: At study initiation, DOC concentration in the test substance replicates is not detected. […] The increase in DOC concentration from Day 0 to Day 28 is likely due to the insolubility of the test substance in water (that is, more test substance likely went into solution while stirring over time). Consequently, DOC removal cannot be calculated for the test substance.

**Q.** Which “KV (40° C.)” value (Kinematic viscosity (KV); 40° C.) does the source give for CCCCCOC(=O)CCCCCC/C=C/C(CC)C(CC(=O)OCCCCC)C(=O)OCCCCC (centres unmarked) [Example 1, Tri-pentanol ester of the maleinized methyl 9-dodecenoate] here?
**A.** 24.73 cSt

**Q.** And the “KV (100° C.)” value (Kinematic viscosity (KV); 100° C.)?
**A.** 5.0 cSt

**Q.** And the “viscosity index (VI)” value [1]?
**A.** 128

**Q.** What about the “Viscosity Index” value ([1]; Table 1, ASTM D2270) of the same compound?
**A.** 128

**Q.** For O=C([O-])c1ccccc1.[Na+] [reference substance, sodium benzoate, reference compound], which bacterial plate count ([2]; single system) is on record?
**A.** 1.4×10^4 CFU/mL

**Q.** What does the source list for “hydrogenated 1-pentyl triester of maleinated-9-dodecene methyl ester [test substance]”?
**A.** inhibition of the inoculum (toxicity control) [3]: not be inhibitory; inhibition of the inoculum (toxicity control) ([3]; listed as triester): not inhibitory; effect on the population of microbes [2]: no significant effect on the population of microbes; bacterial plate count ([2]; replicate A): 2.4×10^4 CFU/mL; bacterial plate count ([2]; replicate B): 3.7×10^4 CFU/mL; solubility in water [4]: insoluble in water
